According to US11278526B2, “Compounds and methods for treating lupus” (RECEPTOS LLC, priority 2016, dated 2022):
Entries after “also recorded” stand apart in the source; their conditions may differ.

Legend:
anti-dsDNA antibodies = test: Serum anti-dsDNA antibody titers by ELISA; assay type: in vivo; conditions: NZBWF1 mice
Experimental: Serum anti-dsDNA antibody titers are used as an indicator of SLE state (see, e.g., Kavanaugh et al., “Guidelines for Clinical Use of the Antinuclear Antibody Test and Tests for Specific Autoantibodies to Nuclear Antigens”, Archives of Pathology & Laboratory Medicine, 124:1, 71-81 (2000)) in most (although not all) patient populations, (see, Isenberg et al., Rheumatology 46:1052-1056, 2007). Titers were measured at 23, 31, 36.5, and 42 weeks. ELISA was performed using an anti-dsDNA ELISA kit (Shibayagi Co., Ltd., cat. no. RSHAKRDD061) following manufacturer's protocol. Results were expressed as optical density (OD) and as arbitrary units per mL. The ELISA standard curve was generated from a pool of sera from mice used a previous study with a known high concentration of anti-dsDNA antibodies. The highest concentration used in the standard curve was 1:100 of that pooled sera. All test samples were diluted 1000-fold for testing. Data was analyzed using http://www.elisaanalysis.com.
As in Example 8, serum anti-dsDNA antibody titers were measured at 22, 30, 36, and 42 weeks. ELISA was performed using an anti-dsDNA ELISA kit.

NZBWF1 mice [1] = test: Kidney weight at termination (42 weeks); assay type: in vivo
Description: In SLE, inflammatory infiltrates known as Tertiary Lymphatic Tissue (TLT) accumulate in the kidney and spleen, among other tissues. As an indirect measure of disease progression, right and left kidneys were weighed (FIGS. 4A-4B) following termination at 42 weeks.
As in Example 5, left kidneys were weighed (FIG. 43) following termination at 42 weeks.

splenocytes = test: Splenocyte counts and immunophenotyping of spleen cell subtypes; assay type: in vivo, mice; conditions: NZBWF1 mice; for Total splenocyte counts relative to vehicle: 42 weeks; for Percent Reduction vs Vehicle: Activated CD4 + T cells / Percent Reduction vs Vehicle: CD4 + T cells / Percent Reduction vs Vehicle: CD8 + T cells / Percent Reduction vs Vehicle: CD11b + Ly6C^hi monocytes / Percent Reduction vs Vehicle: CD19 + B cells / Percent Reduction vs Vehicle: Follicular B cells / Percent Reduction vs Vehicle: Germinal Center B cells / Percent Reduction vs Vehicle: Marginal Zone B cells / Percent Reduction vs Vehicle: Marginal Zone Progenitor B cells / Percent Reduction vs Vehicle: Naive CD4 + T cells / Percent Reduction vs Vehicle: Plasma cells / Percent Reduction vs Vehicle: Tfh cells / Percent Reduction vs Vehicle: Total splenocytes / Percent Reduction vs Vehicle: Treg cells / Percent Reduction vs Vehicle: pDC: spleen
Experimental: To determine the effects of compound 148 on inflammatory infiltrate in the spleen, spleens were weighed at 42 weeks. […] Splenocyte suspensions were then prepared. RBCs were lysed and splenocytes were counted.
Plasmacytoid dendritic cells (pDC) express IFNAR1 (Interferon alpha receptor 1), which amplifies the proinflammatory response to type 1 interferons (e.g., IFNα) that are associated with lupus. IFNAR activity is considered to be an important modulator of signal strength and duration in pDC and subsequent activation of T and B cells in the inflammatory response. pDC counts were measured at termination.
To determine the effects of compound 5 on inflammatory infiltrate in the spleen, spleens were weighed at 42 weeks. […] Splenocyte suspensions were prepared for all three doses. RBCs were lysed and splenocytes were counted.

NZBWF1 mice [2] = test: Serum blood urea nitrogen (BUN) at termination; assay type: in vivo
Experimental: Lymphocyte counts were measured from whole blood taken at 23, 31, and 36.5 weeks using flow cytometry. Cells were gated for CD4+ T cells, CD8+ T cells, and CD19+ B cells. […] Serum blood urea nitrogen (BUN) was also measured at termination to assess kidney function.
As in Example 4, serum blood urea nitrogen (BUN) was measured at termination to assess kidney function.

NZBWF1 mice [3] = test: Proteinuria scores (urine dip sticks) in NZBWF1 SLE mouse model; assay type: in vivo; conditions: for Proteinuria scores relative to vehicle: 3.0 mg/kg PO QD; for Proteinuria scores compared to vehicle: 0.3, 1.0 and 3.0 mg/kg PO QD
Description: Six groups of NZBWF1 mice (Jackson Laboratories, stock #100008) were used in the study and were acclimated to the research facility for 7 weeks prior to the start of the study. Weekly measurements of proteinuria (excess serum proteins present in the urine) and body weight began at 20 weeks of age. At 23 weeks of age, the mice were assigned to groups in a balanced manner in order to achieve average body weight and average proteinuria measurements across the groups. One “naive” group consisting of 10 mice was euthanized at the start of treatment and used as a source of tissue for analysis. Treatment began at 23 weeks of age.
The three groups dosed with compound 148 received 0.3, 1.0, and 3.0 mg/kg PO QD, respectively (20 mice per dosage). Surviving animals were sacrificed at 42 weeks. […] Disease development was evaluated as disclosed in the following examples.
High levels of proteinuria are a strong indicator of SLE. […] Proteinuria was expressed as a score from 0 to 4 (0=no protein; 1=traces of protein (<30 mg/dL); 2=30-100 mg/dL; 3=100-500 mg/dL; 4=>500 mg/dL).
As in Example 3, proteinuria was measured weekly beginning at 20 weeks using urine dip sticks (Roche Diagnostics Chemstrip 2GP, cat. no. 11895397160, per manufacturer's protocol). Proteinuria was expressed as a score from 0 to 4 (0=no protein; 1=traces of protein (<30 mg/dL); 2=30-100 mg/dL; 3=100-500 mg/dL; 4=>500 mg/dL). […] (In this and the following experiments, the number of mice per group was approximately 20, and statistics were determined by one-way ANOVA with Dunnett's comparison.)

[4] = 3.0 mg/kg PO QD (compound 148 study)

CC(C)Oc1ccc(-c2nc(-c3cccc4c3CC[C@@H]4NCCO)no2)cc1C#N [compound 5, (S)-5-(3-(1-(2-hydroxyethylamino)-2,3-dihydro-1H-inden-4-yl)-1,2,4-oxadiazol-5-yl)-2-isopropoxy benzonitrile]
Serum anti-dsDNA antibody titers (anti-dsDNA antibodies; 3 mg/kg PO QD, week 42, less than cyclophosphamide): decreased antibody titers at week 42
Left kidney weight relative to vehicle (NZBWF1 mice [1]; 1.0 and 3.0 mg/kg PO QD): significantly reduced kidney weight relative to vehicle
Total splenocyte counts relative to vehicle (splenocytes; all groups 0.3, 1.0, 3.0 mg/kg PO QD (compound 5 study)): reduced
Percent Reduction vs Vehicle: Activated CD4 + T cells (splenocytes; 0.3 mg/kg PO QD): 46%
Percent Reduction vs Vehicle: CD4 + T cells (splenocytes; 0.3 mg/kg PO QD): 51%
Percent Reduction vs Vehicle: CD8 + T cells (splenocytes; 0.3 mg/kg PO QD): 46%
Percent Reduction vs Vehicle: CD11b + Ly6C^hi monocytes (splenocytes; 0.3 mg/kg PO QD): −17%
Percent Reduction vs Vehicle: CD19 + B cells (splenocytes; 0.3 mg/kg PO QD): 43%
Percent Reduction vs Vehicle: Follicular B cells (splenocytes; 0.3 mg/kg PO QD): 43%
Percent Reduction vs Vehicle: Germinal Center B cells (splenocytes; 0.3 mg/kg PO QD): 46%
Percent Reduction vs Vehicle: Marginal Zone B cells (splenocytes; 0.3 mg/kg PO QD): 20%
Percent Reduction vs Vehicle: Marginal Zone Progenitor B cells (splenocytes; 0.3 mg/kg PO QD): 75%
Percent Reduction vs Vehicle: Naive CD4 + T cells (splenocytes; 0.3 mg/kg PO QD): 73%
Percent Reduction vs Vehicle: Plasma cells (splenocytes; 0.3 mg/kg PO QD): 50%
Percent Reduction vs Vehicle: Tfh cells (splenocytes; 0.3 mg/kg PO QD): 35%
Percent Reduction vs Vehicle: Total splenocytes (splenocytes; 0.3 mg/kg PO QD): 35%
Percent Reduction vs Vehicle: Treg cells (splenocytes; 0.3 mg/kg PO QD): 37%
Percent Reduction vs Vehicle: pDC (splenocytes; 0.3 mg/kg PO QD): 49%
Percent Reduction vs Vehicle: Activated CD4 + T cells (splenocytes; 1.0 mg/kg PO QD): 72%
Percent Reduction vs Vehicle: CD4 + T cells (splenocytes; 1.0 mg/kg PO QD): 75%
Percent Reduction vs Vehicle: CD8 + T cells (splenocytes; 1.0 mg/kg PO QD): 77%
Percent Reduction vs Vehicle: CD11b + Ly6C^hi monocytes (splenocytes; 1.0 mg/kg PO QD): 34%
Percent Reduction vs Vehicle: CD19 + B cells (splenocytes; 1.0 mg/kg PO QD): 69%
Percent Reduction vs Vehicle: Follicular B cells (splenocytes; 1.0 mg/kg PO QD): 66%
Percent Reduction vs Vehicle: Germinal Center B cells (splenocytes; 1.0 mg/kg PO QD): 57%
Percent Reduction vs Vehicle: Marginal Zone B cells (splenocytes; 1.0 mg/kg PO QD): 63%
Percent Reduction vs Vehicle: Marginal Zone Progenitor B cells (splenocytes; 1.0 mg/kg PO QD): 88%
Percent Reduction vs Vehicle: Naive CD4 + T cells (splenocytes; 1.0 mg/kg PO QD): 91%
Percent Reduction vs Vehicle: Plasma cells (splenocytes; 1.0 mg/kg PO QD): 66%
Percent Reduction vs Vehicle: Tfh cells (splenocytes; 1.0 mg/kg PO QD): 51%
Percent Reduction vs Vehicle: Total splenocytes (splenocytes; 1.0 mg/kg PO QD): 50%
Percent Reduction vs Vehicle: Treg cells (splenocytes; 1.0 mg/kg PO QD): 58%
Percent Reduction vs Vehicle: pDC (splenocytes; 1.0 mg/kg PO QD): 72%
Percent Reduction vs Vehicle: Activated CD4 + T cells (splenocytes; 3.0 mg/kg PO QD): 80%
Percent Reduction vs Vehicle: CD4 + T cells (splenocytes; 3.0 mg/kg PO QD): 81%
Percent Reduction vs Vehicle: CD8 + T cells (splenocytes; 3.0 mg/kg PO QD): 75%
Percent Reduction vs Vehicle: CD11b + Ly6C^hi monocytes (splenocytes; 3.0 mg/kg PO QD): 28%
Percent Reduction vs Vehicle: CD19 + B cells (splenocytes; 3.0 mg/kg PO QD): 74%
Percent Reduction vs Vehicle: Follicular B cells (splenocytes; 3.0 mg/kg PO QD): 72%
Percent Reduction vs Vehicle: Germinal Center B cells (splenocytes; 3.0 mg/kg PO QD): 64%
Percent Reduction vs Vehicle: Marginal Zone B cells (splenocytes; 3.0 mg/kg PO QD): 54%
Percent Reduction vs Vehicle: Marginal Zone Progenitor B cells (splenocytes; 3.0 mg/kg PO QD): 85%
Percent Reduction vs Vehicle: Naive CD4 + T cells (splenocytes; 3.0 mg/kg PO QD): 88%
Percent Reduction vs Vehicle: Plasma cells (splenocytes; 3.0 mg/kg PO QD): 70%
Percent Reduction vs Vehicle: Tfh cells (splenocytes; 3.0 mg/kg PO QD): 68%
Percent Reduction vs Vehicle: Total splenocytes (splenocytes; 3.0 mg/kg PO QD): 60%
Percent Reduction vs Vehicle: Treg cells (splenocytes; 3.0 mg/kg PO QD): 81%
Percent Reduction vs Vehicle: pDC (splenocytes; 3.0 mg/kg PO QD): 68%
Serum BUN at termination vs vehicle (NZBWF1 mice [2]; all doses 0.3, 1.0, 3.0 mg/kg PO QD): significant reduction in serum BUN
Proteinuria scores relative to vehicle (NZBWF1 mice [3]; weeks 22-42): significant improvement relative to vehicle
Proteinuria scores compared to vehicle (NZBWF1 mice [3]; weeks 22-42): lower proteinuria scores in a dose-dependent fashion

CC(C)Oc1ccc(-c2nc(-c3cccc4c3CC[C@@H]4N)no2)cc1C#N [compound 148, (S)-5-(3-(1-amino-2,3-dihydro-1H-inden-4-yl)-1,2,4-oxadiazol-5-yl)-2-isopropoxy-benzonitrile]
Serum anti-dsDNA antibody titers (anti-dsDNA antibodies; all three dosages 0.3, 1.0, 3.0 mg/kg PO QD, ELISA optical density): decreased antibody titers at week 29; also recorded: decrease was not sustained over the course of the study
Kidney weight relative to vehicle (NZBWF1 mice [1]; 3.0 mg/kg PO QD, p<0.05): significantly reduced kidney weight relative to vehicle
Total splenocyte counts relative to vehicle (splenocytes; all groups 0.3, 1.0, 3.0 mg/kg PO QD (compound 148 study)): reduced
Decrease of splenic pDC counts relative to vehicle (splenocytes; at termination, 3.0 mg/kg PO QD (compound 148 study)): 62%
Decrease in splenic CD4+ T cell population (splenocytes; [4]): 75%
Decrease in splenic Follicular (FO) B cells (splenocytes; [4]): 79%
Reduction in splenic CD8+ T cell population (splenocytes; [4]): 62%
Reduction in splenic CD19+ B cell population (splenocytes; [4]): 67%
Reduction in splenic Germinal Center (GC) B cell population (splenocytes; [4]): 51%
Reduction in splenic Marginal Zone (MZ) B cell population (splenocytes; [4]): 61%
Reduction in splenic activated CD4+ T cell population (splenocytes; [4]): 75%
Reduction in splenic naïve CD4+ T cells (splenocytes; [4]): 81%
Reduction in splenic plasma cell population (splenocytes; [4]): 30%
Serum BUN at termination vs vehicle (NZBWF1 mice [2]; 3 mg/kg PO QD, p<0.05): significant reduction in serum BUN
Proteinuria scores relative to vehicle (NZBWF1 mice [3]; weeks 23-42, p<0.05, 3 mg/kg): significant improvement relative to vehicle; also recorded: efficacy similar to cyclophosphamide
Proteinuria scores compared to vehicle (NZBWF1 mice [3]; weeks 23-42): lower proteinuria scores in a dose-dependent fashion
